Results: ChEMBL document CHEMBL6087443, “3-Halo-3-nitro-aza/thioflavanones: DNMT inhibitors with a two-site binding mode in the hDNMT3A catalytic pocket” (Bioorg Med Chem, 2025)
Active and inactive are the calls of the source. No cut-off for these calls is given here.

How the values were obtained:
[1] = Stability of compound in DNMT methylation buffer by HPLC analysis; type: physicochemical
[2] = Stability of the compound at pH 5.3; type: physicochemical; settings: buffer
[3] = Stability of the compound in HEPES buffer incubated for 2 hrs by measuring inhibition of DNMT (unknown origin) at 32 uM by HPLC analysis; type: physicochemical
[4] = Stability of the compound in HEPES buffer incubated for 2 hrs by measuring inhibition of DNMT (unknown origin) at 10 uM by HPLC analysis; type: physicochemical
[5] = target: DNA (cytosine-5)-methyltransferase 3A (Homo sapiens) (UniProt Q9Y6K1); assay: Inhibition of hDNMT3A-c using SAM and oligonucleotide with CpG site at 32 uM incubated for 2 hrs by fluorescence-based assay relative to control
DNA (cytosine-5)-methyltransferase 3A (Homo sapiens), sequence (Q9Y6K1 whole entry, looked up): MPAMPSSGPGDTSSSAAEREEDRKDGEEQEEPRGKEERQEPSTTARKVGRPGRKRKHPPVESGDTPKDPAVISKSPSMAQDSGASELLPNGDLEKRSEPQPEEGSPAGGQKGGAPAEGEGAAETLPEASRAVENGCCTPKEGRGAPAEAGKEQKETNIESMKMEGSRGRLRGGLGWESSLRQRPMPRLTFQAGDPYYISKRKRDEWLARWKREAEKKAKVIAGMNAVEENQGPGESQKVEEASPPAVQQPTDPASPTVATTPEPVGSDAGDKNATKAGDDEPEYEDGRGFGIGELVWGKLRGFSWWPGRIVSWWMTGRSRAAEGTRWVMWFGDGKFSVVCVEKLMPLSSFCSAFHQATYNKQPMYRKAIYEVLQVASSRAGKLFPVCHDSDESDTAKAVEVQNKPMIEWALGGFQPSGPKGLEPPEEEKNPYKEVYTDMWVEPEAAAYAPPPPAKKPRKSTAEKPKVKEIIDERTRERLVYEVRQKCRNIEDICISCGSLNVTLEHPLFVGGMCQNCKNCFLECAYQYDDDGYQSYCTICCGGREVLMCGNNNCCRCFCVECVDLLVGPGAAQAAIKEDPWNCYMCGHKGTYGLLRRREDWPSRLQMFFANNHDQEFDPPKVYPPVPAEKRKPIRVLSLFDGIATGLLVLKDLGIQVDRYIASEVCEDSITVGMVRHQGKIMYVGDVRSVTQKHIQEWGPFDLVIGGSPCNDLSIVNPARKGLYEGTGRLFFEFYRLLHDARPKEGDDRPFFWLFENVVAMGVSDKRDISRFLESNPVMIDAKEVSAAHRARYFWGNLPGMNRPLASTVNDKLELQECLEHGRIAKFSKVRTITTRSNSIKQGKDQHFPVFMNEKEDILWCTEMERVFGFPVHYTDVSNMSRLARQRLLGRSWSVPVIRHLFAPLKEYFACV

[6] = target: DNA (cytosine-5)-methyltransferase 3A (Homo sapiens) (UniProt Q9Y6K1); assay: Inhibition of hDNMT3A-c using SAM and oligonucleotide with CpG site at 10 uM incubated for 2 hrs by fluorescence-based assay relative to control

| Stability [2] | Stability [3] | Stability [4] | Structure (SMILES) | half-life [1] | inhibition [5] | inhibition [6] |
| --- | --- | --- | --- | --- | --- | --- |
| Stable | Unstable | Unstable | COc1cccc(C2Nc3ccccc3C(=O)C2(Br)[N+](=O)[O-])c1 (racemic) | 42 min | 100% | 59% |
| – | – | – | O=C1c2ccccc2S[C@@H](c2cccc(C(F)(F)F)c2)[C@@]1(Br)[N+](=O)[O-] (relative stereo) | 12 min | 63% | 35% |
| – | – | – | O=C1c2ccccc2S[C@@H](c2ccccc2F)[C@]1(Br)[N+](=O)[O-] (relative stereo) | 48 min | 67% | 32% |
| – | – | – | O=C1c2ccccc2NC(c2ccccc2)C1[N+](=O)[O-] (stereo unspecified) | – | inactive | inactive |
| – | – | – | COc1cccc(C2Nc3ccccc3C(=O)C2(Cl)[N+](=O)[O-])c1 (racemic) | 138 min | 56% | 42% |
| – | – | – | O=C1c2ccccc2O[C@@H](c2ccccc2[N+](=O)[O-])[C@]1(Cl)[N+](=O)[O-] (relative stereo) | – | 84% | 69% |
| – | – | – | O=C1c2ccccc2S[C@@H](c2cccc(C(F)(F)F)c2)[C@]1(Br)[N+](=O)[O-] (relative stereo) | 192 min | 78% | 34% |
| – | – | – | O=C1c2ccccc2S[C@@H](c2ccccc2)[C@@]1(Br)[N+](=O)[O-] (relative stereo) | 12 min | 68% | 42% |
| – | – | – | O=C1c2ccccc2S[C@H](c2cccc([N+](=O)[O-])c2)[C@@]1(Br)[N+](=O)[O-] (relative stereo) | 54 min | 59% | 27% |
| – | – | – | O=C1c2ccccc2O[C@@H](c2ccccc2)[C@]1(Br)[N+](=O)[O-] (relative stereo) | – | 92% | 69% |
| – | – | – | COc1cccc(C2Nc3ccccc3C(=O)C2[N+](=O)[O-])c1 (stereo unspecified) | – | inactive | inactive |
| – | – | – | O=C1c2ccccc2S[C@@H](c2ccccc2)[C@]1(Br)[N+](=O)[O-] (relative stereo) | 72 min | 86% | 51% |
| – | – | – | O=C1c2ccccc2NC(c2ccccc2)C1(Br)[N+](=O)[O-] (racemic) | 18 min | 89% | 55% |
| – | – | – | O=C1c2ccccc2S[C@@H](c2ccccc2F)[C@@]1(Br)[N+](=O)[O-] (relative stereo) | 66 min | 67% | 42% |
